# Results as given in publication PMC7365463, “Oxfendazole mediates macrofilaricidal efficacy against the filarial nematode Litomosoides sigmodontis in vivo and inhibits Onchocerca spec. motility in vitro” (PLoS Neglected Tropical Diseases, 2020).
# Where two headings read alike, the source gives them in different places.
# Legend:
# Brugia pahangi = conditions: 100L3 (SC), cats, SC 100-400mg/kg x1, patent phase, necropsy 46-51 days p.t.; ref Denham 1979 (Ref. 4); cited from earlier work
# Acanthocheilonema viteae = tested on: Acanthocheilonema viteae; set-up: method as in Nogami 1987 (Ref. 13); conditions: 50L3 (SC), hamster, SC 10mg/kg 5 cons. days, 12 weeks p.i, necropsy 5 weeks p.t.; ref Nogami 1987 (Ref. 13); cited from earlier work
# [1] = tested on: Acanthocheilonema viteae / Brugia pahangi; set-up: method as in Court 1988 (Ref. 10); conditions: 15Ad A.v. (SC) +15Ad B.p. (IP), jirds, 5 days p.i., necropsy 5 weeks p.t., ref Court 1988 (Ref. 10), cited from earlier work
# Breinlia booliati = tested on: Breinlia booliati; set-up: method as in Mak 1981 (Ref. 7); conditions: 100L3 (SC), rats, SC 3mg/kg 5 cons. days, patent phase, necropsy 4 weeks p.t.; ref Mak 1981 (Ref. 7); cited from earlier work
# [2] = tested on: Litomosoides sigmodontis adult worms; assay: L. sigmodontis-infected mice, adult worm burden; type: in vivo
# Description: (Whatman 903 Protein […], Sigma-Aldrich, Germany). […] Mice were sacrificed at 75-78 dpi. […] The mice were anesthetized then sacrificed by bleeding (at MNHN) or by an overdose of isoflurane (at IMMIP). At the MNHN, the pleural cavity was washed 10 times with 1 ml of cold phosphate buffered saline (PBS) to collect filariae as previously described. At the IMMIP, the pleural cavity was washed with 1 ml of PBS. In both laboratories the remaining worms were isolated using forceps. The recovered L. sigmodontis adult worms were counted and analyzed by light microscopy to identify males and females.
# [3] = tested on: Onchocerca volvulus pre-adult L5 worms; assay: O. volvulus pre-adult (L5) worm motility assay; conditions: read-out: IC50 of motility inhibition
# Description: Cryopreserved O. volvulus L3 were thawed, washed and co-cultured with normal human PBMC as previously described. […] The L4 larvae were then transferred into a transwell (Sigma #CLS3472), ~10 L4 per transwell within a 24-well plate and over a monolayer comprised of Human Umbilical Vein Endothelial Cells (HUVEC; Lonza Inc., Allendale, NJ) seeded at a density of 1 x 10^4 cells per well. The larvae were cultured for 80 days using L4 complete media: 1:1 NCTC-109: MEM-alpha and EBM-2 (Clonetics EBM-2 Lonza# CC-3156) at a 60:40 ratio. […] Medium was exchanged 3 times a week and fresh HUVEC monolayers were prepared weekly. A week prior to performing the drug screening assay, the L4 day 80 that has molted to pre-adult worms, L5, were transferred from the transwells into a small petri dish containing fresh complete media. 7–10 L5 worms were retrieved from the petri dish and placed in new transwells containing a freshly prepared HUVEC monolayer. […] After 14 days of treatment, the drug containing media was replaced by complete media without drug. Continuing this assay for a further 19 days, the worms were supplied with fresh media every 2–3 days and the weekly use of fresh HUVEC monolayers. […] All drug concentrations were tested in duplicate. […] IC50 values were calculated using Graph Pad Prism v8.3.
# mammalian tubulin = tested on: mammalian tubulin; set-up: method as in PMID 6712717, PMID 1554382; conditions: cited from earlier work
# mouse lymphoma assay = tested on: mouse lymphoma assay; set-up: method as in earlier work; conditions: in vitro; cited from earlier work
# [4] = set-up: method as in PMID 30745383; conditions: daily doses up to 60 mg/kg; cited from earlier work
# [5] = set-up: method as in earlier work; conditions: dogs; cited from earlier work
# AMES bacterial assay = conditions: in vitro; cited from earlier work
# L. loa microfilariae = tested on: L. loa microfilariae; set-up: method as in PMID 30926803; conditions: L. loa mouse model; cited from earlier work
# [6] = set-up: method as in PMID 1687815; conditions: rat/sheep/cattle, published data; cited from earlier work
# [7] = set-up: method as in earlier work; conditions: in vivo, lack of potential for aneuploidy; cited from earlier work
# [8] = human
# [9] = tested on: L. sigmodontis microfilariae; assay: L. sigmodontis microfilariae-injected naïve mice; type: in vivo, Litomosoides sigmodontis; conditions: mice injected with 100,000 microfilariae, BID 2 x 12.5 mg/kg per os for 5 days
# Description: To investigate the in vivo efficacy of oxfendazole on microfilariae, microfilariae were isolated from peripheral blood of L. sigmodontis-infected cotton rats according to Chandrashekar et al. (1984) using a sucrose percoll gradient. 100,000 microfilariae were injected into the tail vein of naïve mice as previously described. Microfilariae-injected mice were treated with a commercial formulation of oxfendazole (Dolthene) twice daily with 2 x 12.5 mg/kg per os. As a positive control, additional mice were treated with a single intraperitoneal dose of ivermectin (5 mg/kg) in DMSO/PEG400/H20dest with a ratio of 1:7:2 according to Halliday et al.. Control animals received no treatment.
# [10] = mice, PO 2 x 2.5 mg/kg for 1 day, start 33 dpi, 75 dpi
# [11] = mice, PO 2 x 2.5 mg/kg for 5 days, start 33 dpi, 75 dpi
# [12] = mice, PO 2 x 2.5 mg/kg for 10 days, start 33 dpi, 75 dpi
# [13] = mice, PO BID 2 x 1 mg/kg for 5 days from 35 dpi, necropsy 75 dpi
# [14] = mice, PO BID 2 x 5 mg/kg for 5 days from 35 dpi, necropsy 75 dpi
smiles,measurement,setting,value
COC(=O)Nc1nc2cc(C(=O)c3ccc(F)cc3)ccc2[nH]1 [flubendazole],Reduction of worm burden,Brugia pahangi,100%
same,Reduction of worm burden,Acanthocheilonema viteae,68%
same,Reduction of worm burden,[1]; SC 50mg/kg 5 cons. days,50%
same,Reduction of worm burden,[1]; SC 100mg/kg 5 cons. days,100%
same,Reduction of worm burden,Breinlia booliati,100%
COC(=O)Nc1nc2ccc([S+]([O-])c3ccccc3)cc2[nH]1 (stereo not shown) [oxfendazole],minimal efficacious concentration,"[2]; based on subcutaneous treatment at 25 mg/kg in mice, pharmacokinetic analysis",approximately 100 ng/ml
same,macrofilaricidal efficacy,"[2]; mice, BID oral 2 x 5.0 mg/kg for 10 consecutive days",above 85%
same,macrofilaricidal efficacy,"[2]; mice, BID oral 2 x 12.5 mg/kg for 5 days",above 85%
same,median adult worms,[2]; [10],20 worms
same,range of adult worms,[2]; [10],1–47 worms
same,reduction of the adult worm burden,[2]; [10],0%
same,median adult worms,[2]; [11],6.5 worms
same,range of adult worms,[2]; [11],1–16 worms
same,reduction of the adult worm burden,[2]; [11],23.5%
same,median adult worms,[2]; [12],1 worm
same,range of adult worms,[2]; [12],0–4 worms
same,reduction of the adult worm burden,[2]; [12],87.2%
same,adult worm burden reduction,[2]; [13],16.7%
same,median adult worms,[2]; [13],5 adult worms
same,range of adult worms,[2]; [13],1–12 worms
same,adult worm burden reduction,[2]; [14],100%
same,median adult worms,[2]; [14],0 adult worms
same,range of adult worms,[2]; [14],0–5 worms
same,adult worm reduction,"[2]; mice, PO BID 2 x 12.5 mg/kg for 5 days from 35 dpi, necropsy 78 dpi",100%
same,adult worm burden reduction,"[2]; mice, PO BID 2 x 25 mg/kg for 5 days from 35 dpi, necropsy 75 dpi",100%
same,macrofilaricidal outcome,"[2]; mice, SC 1 mg/kg QD for 5 days from 35 dpi, necropsy 78 dpi",no significant reduction of the worm burden
same,macrofilaricidal outcome,"[2]; mice, SC 5 mg/kg QD for 5 days from 35 dpi, necropsy 78 dpi",sterile cure was achieved in all mice except one
same,macrofilaricidal outcome,"[2]; mice, SC 25 mg/kg QD for 5 days from 35 dpi, necropsy 78 dpi",Sterile cure was achieved
same,macrofilaricidal outcome,"[2]; mice, single oral BID dosing, doses up to 125 mg/kg, start 33 dpi, 75 dpi",did not lead to a significant reduction
same,IC50,"[3]; 336 h, day 14 (14 days drug exposure)",7590 nM
same,IC50,"[3]; day 19 of culture (14 days drug, 5 days without drug)",28.6 nM
same,IC50,"[3]; day 33 of culture (14 days drug, 19 days without drug)",10.2 nM
same,inhibition of mammalian tubulin polymerization,mammalian tubulin,poor inhibition
same,toxicity in mouse lymphoma assay,mouse lymphoma assay,did not exhibit toxicity
same,tolerability in healthy volunteers,[4],acceptable side effects
same,"Half-Life (HL), via predicted Vss/CL",human,14.4 h
same,"Half-Life (HL), dog-hum correlation",human prediction,4.2 h
same,"Half-Life (HL), rat-hum correlation",human prediction,12.1 h
same,predicted human clearance as share of liver blood flow,human prediction,~ 2 % liver blood flow
same,cardiovascular effects,[5],did not raise safety concerns
same,toxicity in AMES bacterial assay,AMES bacterial assay,did not exhibit toxicity
same,microfilaricidal efficacy against L. loa,L. loa microfilariae,lacks such a microfilaricidal efficacy
same,Bioavailability (F),[6],>50%
same,rat micronucleus assay outcome,[7],confirmed the in vitro results
same,clearance,[8],~0.4 mL/min/kg
same,Vd,"[8]; Vol. of Distribution (Vss), Final",~0.5 L/kg
same,CLhep predicted,[8]; hepatocytes,0.4 mL/min/kg
same,bioavailability,[8]; po,30%
same,direct microfilaricidal effect in vivo,[9],no direct microfilaricidal effect
